Assay results taken from US4126616A, “N-propylnorapomorphine diesters” (Hinshaw; William B., priority 1976, dated 1978).
Where two headings read alike, the source gives them in different places.

System: caudate lesioned mouse
Assay: caudate lesioned mouse test (anti-parkinson activity)
Type: in vivo
Settings: for responders at 208 µmol/kg / responders at 416 µmol/kg / responders at 26 µmol/kg / responders at 52 µmol/kg / responders at 104 µmol/kg / responders at 13 µmol/kg / responders at 132 µmol/kg / responders at 94 µmol/kg: Mus musculus; for responders at 208 µmol/kg: dose 0.208 m. mole/kg; for responders at 416 µmol/kg: dose 0.416 m. mole/kg; for ED50: caudate lesioned mouse, read-out: ED50; for responders at 13 µmol/kg: dose 0.013 m. mole/kg; for responders at 132 µmol/kg: dose 0.132 m. mole/kg; for responders at 94 µmol/kg: dose 0.094 m. mole/kg
Experimental: An index of anti-parkinson activity was determined using the caudate lesioned mouse test described by Lotti, Life Sci., 10, 781-789 (1971). The mice having unilateral lesions of the caudate nucleus prepared according to the method of Lotti supra were observed immediately after the surgical procedure for strong postural asymmetries directed to the same side as the lesion. When this asymmetry was not observed, the mice were discarded. Operated mice were allowed at least 14 days to recover prior to drug testing. The lesioned mice were tested with apomorphine using 1.7 mg./kg. of base administered intraperitoneally in a 1% suspension in gum tragacanth. […] Only those mice which twisted or circled toward the lesioned side in all three test periods after the apomorphine injection were retained for further drug testing. The test drugs were all administered in 1% gum tragacanth suspension in a volume of 0.1 ml./10 g. of body weight. Doses were expressed in mg./kg. of free base.
Results of tests in the caudate lesioned mouse test described above which were obtained on the compounds of the invention are given in the table below identified, in each case, by the example numbers above where their preparations are described. Corresponding data for reference apomorphine diesters described in German patent application No. 2,154,162 are given in a side-by-side relationship for a number of the species. The reference compounds, designated Ref. 1, Ref. 1B, Ref. 1C, Ref. 1D, Ref. 1E, Ref. 1F, Ref. 2 and Ref. 2A correspond, respectively, to the compounds of the invention identified by Examples 1, 1B, 1C, 1D, 1E, 1F, 2 and 2A and differ from the latter only in having a methyl group on the apomorphine nitrogen from instead of an n-propyl group as present in the instant compounds.

[1] = 0.5 h, 1/2 h post-drug, read-out: No. Mice Affected/No. Mice Tested, 1/2 h (converted)
[2] = 1 h post-drug, read-out: No. Mice Affected/No. Mice Tested, 1 h
[3] = 4 h post-drug, read-out: No. Mice Affected/No. Mice Tested, 4 h (converted)
[4] = 6 h post-drug, read-out: No. Mice Affected/No. Mice Tested, 6 h (converted)
[5] = 24 h post-drug, read-out: No. Mice Affected/No. Mice Tested, 24 h (converted)
[6] = total, read-out: No. Mice Affected/No. Mice Tested, Total (converted)
[7] = 1 h post-drug, read-out: No. Mice Affected/No. Mice Tested, 1 h (converted)
[8] = 24 h post-drug, read-out: No. Mice Affected/No. Mice Tested, 24 h
[9] = 0.5 h, read-out: No. Mice Affected/No. Mice Tested, 1/2 h
[10] = 1 h, read-out: No. Mice Affected/No. Mice Tested, 1 h
[11] = 4 h, read-out: No. Mice Affected/No. Mice Tested, 4 h
[12] = 6 h, read-out: No. Mice Affected/No. Mice Tested, 6 h
[13] = 24 h, read-out: No. Mice Affected/No. Mice Tested, 24 h
[14] = read-out: No. Mice Affected/No. Mice Tested, Total
[15] = 0.5 h, dose 0.026 m. mole/kg, 1/2 h post-drug, read-out: No. Mice Affected/No. Mice Tested, 1/2 h (converted)
[16] = dose 0.026 m. mole/kg, 1 h post-drug, read-out: No. Mice Affected/No. Mice Tested, 1 h (converted)
[17] = dose 0.026 m. mole/kg, 2 h post-drug, read-out: No. Mice Affected/No. Mice Tested, 2 h (converted)
[18] = dose 0.026 m. mole/kg, 4 h post-drug, read-out: No. Mice Affected/No. Mice Tested, 4 h (converted)
[19] = dose 0.026 m. mole/kg, 6 h post-drug, read-out: No. Mice Affected/No. Mice Tested, 6 h (converted)
[20] = dose 0.026 m. mole/kg, 24 h post-drug, read-out: No. Mice Affected/No. Mice Tested, 24 h
[21] = dose 0.026 m. mole/kg, total, read-out: No. Mice Affected/No. Mice Tested, Total (converted)
[22] = 2 h post-drug, read-out: No. Mice Affected/No. Mice Tested, 2 h (converted)

CCCCC(=O)Oc1ccc2c(c1OC(=O)CCCC)-c1cccc3c1C(C2)N(C)CC3 (stereo not drawn) [Ref. 2A, reference compound]
responders at 208 µmol/kg [1]: 0% | responders at 416 µmol/kg [1]: 33.3% | responders at 208 µmol/kg [2]: 0% | responders at 208 µmol/kg [3]: 0% | responders at 208 µmol/kg [4]: 0% | responders at 208 µmol/kg [5]: 0% | responders at 208 µmol/kg [6]: 0% | responders at 416 µmol/kg [7]: 0% | responders at 416 µmol/kg [3]: 0% | responders at 416 µmol/kg [4]: 0% | responders at 416 µmol/kg [8]: 0% | responders at 416 µmol/kg [6]: 33.3%

CCCN1CCc2cccc3c2C1Cc1ccc(OC(C)=O)c(OC(C)=O)c1-3 (stereo not drawn) [Ex. 2, N-propylnorapomorphine diacetate]
responders at 26 µmol/kg [9]: 100% | responders at 52 µmol/kg [9]: 25% | responders at 104 µmol/kg [9]: 50% | responders at 26 µmol/kg [10]: 100% | responders at 52 µmol/kg [10]: 25% | responders at 104 µmol/kg [10]: 75% | responders at 26 µmol/kg [11]: 50% | responders at 52 µmol/kg [11]: 25% | responders at 104 µmol/kg [11]: 25% | responders at 26 µmol/kg [12]: 100% | responders at 52 µmol/kg [12]: 75% | responders at 104 µmol/kg [12]: 50% | responders at 26 µmol/kg [13]: 50% | responders at 52 µmol/kg [13]: 0% | responders at 104 µmol/kg [13]: 50% | responders at 26 µmol/kg [14]: 100% | responders at 52 µmol/kg [14]: 75% | responders at 104 µmol/kg [14]: 75% | Molar Potency Ratio Claimed/Ref. Ester (claimed N-propyl ester vs corresponding N-methyl reference ester): ≥ 16

CCCN1CCc2cccc3c2C1Cc1ccc(OC(=O)c2ccccc2C)c(OC(=O)c2ccccc2C)c1-3 (stereo not drawn) [Ex. 1G, N-Propylnorapomorphine bis-2-methylbenzoate]
ED50: 26 µmol/kg | responders at 26 µmol/kg [15]: 25% | responders at 26 µmol/kg [16]: 50% | responders at 26 µmol/kg [17]: 50% | responders at 26 µmol/kg [18]: 50% | responders at 26 µmol/kg [19]: 50% | responders at 26 µmol/kg [20]: 0% | responders at 26 µmol/kg [21]: 50%

CCCN1CCc2cccc3c2C1Cc1ccc(OC(=O)C2CC2)c(OC(=O)C2CC2)c1-3 (stereo not drawn) [Ex. 1M, N-Propylnorapomorphine bis-cyclopropanecarboxylate]
ED50: 13 µmol/kg | responders at 13 µmol/kg [1]: 50% | responders at 26 µmol/kg [15]: 100% | responders at 132 µmol/kg [1]: 100% | responders at 13 µmol/kg [7]: 50% | responders at 13 µmol/kg [22]: 50% | responders at 13 µmol/kg [3]: 25% | responders at 13 µmol/kg (6 h post-drug, read-out: No. Mice Affected/No. Mice Tested, 6 h): 0% | responders at 13 µmol/kg [8]: 0% | responders at 13 µmol/kg [6]: 50% | responders at 26 µmol/kg [16]: 75% | responders at 26 µmol/kg [17]: 75% | responders at 26 µmol/kg [18]: 75% | responders at 26 µmol/kg [19]: 75% | responders at 26 µmol/kg [20]: 0% | responders at 26 µmol/kg [21]: 100% | responders at 132 µmol/kg [7]: 100% | responders at 132 µmol/kg [22]: 100% | responders at 132 µmol/kg [3]: 100% | responders at 132 µmol/kg [4]: 100% | responders at 132 µmol/kg [5]: 100% | responders at 132 µmol/kg [6]: 100%

CCCCCCCCCCCCCCCC(=O)Oc1ccc2c(c1OC(=O)CCCCCCCCCCCCCCC)-c1cccc3c1C(C2)N(C)CC3 (stereo not drawn) [Ref. 1D, reference compound]
responders at 208 µmol/kg [1]: 0% | responders at 416 µmol/kg [1]: 0% | responders at 208 µmol/kg [2]: 0% | responders at 208 µmol/kg [3]: 0% | responders at 208 µmol/kg [4]: 0% | responders at 208 µmol/kg [5]: 0% | responders at 208 µmol/kg [6]: 0% | responders at 416 µmol/kg [7]: 0% | responders at 416 µmol/kg [3]: 0% | responders at 416 µmol/kg [4]: 0% | responders at 416 µmol/kg [8]: 0% | responders at 416 µmol/kg [6]: 0%

CCCC(=O)Oc1ccc2c(c1OC(=O)CCC)-c1cccc3c1C(C2)N(CCC)CC3 (stereo not drawn) [Ex. 1A, N-Propylnorapomorphine dibutanoate]
responders at 26 µmol/kg [15]: 0% | responders at 132 µmol/kg [1]: 50% | responders at 26 µmol/kg [16]: 0% | responders at 26 µmol/kg [17]: 0% | responders at 26 µmol/kg [18]: 0% | responders at 26 µmol/kg [19]: 0% | responders at 26 µmol/kg [20]: 0% | responders at 26 µmol/kg [21]: 0% | responders at 132 µmol/kg [7]: 100% | responders at 132 µmol/kg [22]: 100% | responders at 132 µmol/kg [3]: 100% | responders at 132 µmol/kg [4]: 100% | responders at 132 µmol/kg [5]: 100% | responders at 132 µmol/kg [6]: 100%

CCCN1CCc2cccc3c2C1Cc1ccc(OC(=O)c2ccc(C)cc2)c(OC(=O)c2ccc(C)cc2)c1-3 (stereo not drawn) [Ex. 1H, N-Propylnorapomorphine bis-4-methylbenzoate]
ED50: 70 µmol/kg | responders at 26 µmol/kg [15]: 0% | responders at 94 µmol/kg [1]: 100% | responders at 26 µmol/kg [16]: 0% | responders at 26 µmol/kg [17]: 0% | responders at 26 µmol/kg [18]: 0% | responders at 26 µmol/kg [19]: 0% | responders at 26 µmol/kg [20]: 0% | responders at 26 µmol/kg [21]: 0% | responders at 94 µmol/kg [7]: 75% | responders at 94 µmol/kg [22]: 75% | responders at 94 µmol/kg [3]: 75% | responders at 94 µmol/kg [4]: 75% | responders at 94 µmol/kg [5]: 75% | responders at 94 µmol/kg [6]: 100%

CN1CCc2cccc3c2C1Cc1ccc(OC(=O)c2ccccc2)c(OC(=O)c2ccccc2)c1-3 (stereo not drawn) [Ref. 1E, reference compound]
responders at 416 µmol/kg [1]: 0% | responders at 416 µmol/kg [7]: 0% | responders at 416 µmol/kg [3]: 0% | responders at 416 µmol/kg [4]: 0% | responders at 416 µmol/kg [8]: 0% | responders at 416 µmol/kg [6]: 0%
